# Where two headings read alike, the source gives them in different places.
# How the values were obtained:
# [1] = Porcine model of lymphatic mapping (intradermal limb injection); type: in vivo, swine
# [2] = vital blue dye alone, intradermal; cited from earlier work
# [3] = cited from earlier work
# [4] = Human melanoma clinical trial, intraoperative sentinel lymph node fluorescence; type: in vivo; conditions: 0.001%, 1 ml intradermally in 4 locations, 3 out of 5 patients
# Procedure: Patients with cutaneous malignant melanoma with a Breslow thickness of 0.75 mm or greater, or Clark level IV/V involvement, or ulceration were enrolled in the trial. All patients underwent preoperative lymphoscintigraphy with 99m-Technetium labeled sulfur colloid up to 24 hours before the operation. The normally used intraoperative vital blue dye was replaced by fluorescein. The initial starting dose of fluorescein was 0.001% and 1 ml was injected intradermally intraoperatively in 4 locations around the melanoma biopsy site. At this does, sentinel lymph node fluorescence was identified in 3 out of 5 patients (60%). […] The 0.01% dose was used in the subsequent phase II study.
# [5] = 120 colon cancer patients, intramural bowel injection; cited from earlier work
# [6] = 1,047 patients, intradermal, 10% fluorescein mixed 1:1 with 1% lidocaine hydrochloride; cited from earlier work
Compound,"forelimb injections leading to a SLN ([1]; swine forelimb, injected four times)",cases in which the SLN can be identified [2],"patients with anaphylactoid reaction or life threatening anaphylactic shock ([3]; 1% dye, lymphatic mapping and SLNB)","chance of a life-threatening anaphylactic event caused by injection ([3]; human, in vivo) [%]","forelimb injections developing visible fluorescence leading to a SLN ([1]; swine forelimb, one of seven injections) [%]","hindlimb injections showing lymphatic trunks under the skin leading to the SLN ([1]; swine hindlimb, nine of ten injections) [%]",patients with sentinel lymph node fluorescence identified [4] [%],adverse reactions [5],adverse reactions [6]
"CCN(CC)c1ccc(C(=C2C=CC(=[N+](CC)CC)C=C2)c2cc(S(=O)(=O)[O-])ccc2S(=O)(=O)[O-])cc1.[Na+] [Lymphazurin, isosulfan blue]",failed to lead to a SLN,approximately 87%,0.1-2%,1,,,,,
"O=C1OC2(c3ccc(O)cc3Oc3cc(O)ccc32)c2ccccc21 [fluorescein, Fluorescein]",,,,,14,90,60,none of the 120 patients suffered any adverse reactions,without adverse reactions
